Experimental data as given in the supplement of paper PMC8671470.

Key:
Details in all cases: 72 h
[1] = tested on: LAMA-84
Summary of the method: (§1)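 For the IC50, dose–response curves were fitted with a log-logistic model. The data came from fifteen myeloid leukaemia cell lines grown in RPMI 1640 at densities in the linear growth range and incubated in 384-well plates for 72 h at 37 °C under 5% CO2. Doses were five tenfold steps from 1 to 10,000 nM in duplicate, and luminescent ATP viability was normalised to vehicle and to a positive control at 10 µM before four-parameter fitting.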

[2] = tested on: HL-60
Summary of the method: as §1

[3] = tested on: KCL-22
Summary of the method: as §1

[4] = tested on: BV-173
Summary of the method: as §1

[5] = tested on: MOLM-13
Summary of the method: as §1

[6] = tested on: HEL
Summary of the method: as §1

[7] = tested on: THP-1
Summary of the method: as §1

[8] = tested on: SHI-1
Summary of the method: as §1

[9] = tested on: ML-2
Summary of the method: as §1

[10] = tested on: KG-1
Summary of the method: as §1

[11] = tested on: myeloid leukemia patient primary cells Pat.1; test: cell viability (% survival relative to DMSO control); higher = less cytotoxic
Summary of the method: (§2)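 Thawed, Ficoll-purified mononuclear cells from AML or CML patients in RPMI 1640 with 10% FBS were seeded at 10,000 cells/well on 384-well plates pre-printed with 70 compounds at five tenfold concentrations, 1–10,000 nM, in duplicate, for 72 h. Viability was read by CellTiter-Glo and normalised to DMSO and 10 μM proteasome-inhibitor wells. Where given, area under the curve came from four-parameter log-logistic fits (drc, PharmacoGx R packages).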

[12] = tested on: myeloid leukemia patient primary cells Pat.8; test: as above
Summary of the method: as §2

[13] = tested on: myeloid leukemia patient primary cells Pat.5; test: as above
Summary of the method: as §2

[14] = tested on: myeloid leukemia patient primary cells Pat.6; test: as above
Summary of the method: as §2

[15] = tested on: myeloid leukemia patient primary cells Pat.14; test: as above
Summary of the method: as §2

[16] = tested on: myeloid leukemia patient primary cells Pat.7; test: as above
Summary of the method: as §2

[17] = tested on: myeloid leukemia patient primary cells Pat.13; test: as above
Summary of the method: as §2

[18] = tested on: myeloid leukemia patient primary cells Pat.2; test: as above
Summary of the method: as §2

[19] = tested on: myeloid leukemia patient primary cells Pat.3; test: as above
Summary of the method: as §2

[20] = tested on: myeloid leukemia patient primary cells Pat.10; test: as above
Summary of the method: as §2

[21] = tested on: myeloid leukemia patient primary cells Pat.12; test: as above
Summary of the method: as §2

[22] = tested on: myeloid leukemia patient primary cells Pat.4; test: as above
Summary of the method: as §2

[23] = tested on: myeloid leukemia patient primary cells Pat.9; test: as above
Summary of the method: as §2

[24] = tested on: myeloid leukemia patient primary cells Pat.11; test: as above
Summary of the method: as §2

[25] = tested on: myeloid leukemia patient primary cells Pat.15; test: as above
Summary of the method: as §2

[26] = tested on: HL-60; test: area under dose-response curve (viability, 1 nM-10 uM) (fraction (0-1)); higher = more sensitive
Summary of the method: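 A rescreen of the full library used HL-60 cells in RPMI 1640 with 10% FBS on 384-well plates, run in duplicate at five tenfold concentrations (1–10,000 nM). Each screen included DMSO or 100 nM of one of three metabolic inhibitors and ran 72 h at 37 °C, 5% CO2. CellTiter-Glo viability was scaled between DMSO and 10 μM proteasome-inhibitor wells. Any area under the curve comes from four-parameter log-logistic fits with drc and PharmacoGx.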

COc1cc(/C=C/C(=O)N2CCC=CC2=O)cc(OC)c1OC [Piperlongumine]
Details	IC50 (cell viability) [µM]
[1]	3.22
[2]	2.36
[3]	2.92
[4]	1.62
[5]	1.93
[6]	3.03
[7]	2.45
[8]	2.53
[9]	1.66
[10]	3.33

Details	area under dose-response curve, co-treatment: AZD3965 100 nM	area under dose-response curve, co-treatment: DMSO vehicle	area under dose-response curve, co-treatment: GSK2194069 100 nM	area under dose-response curve, co-treatment: pictilisib 100 nM	cell viability, 1 nM [%]	cell viability, 10 nM [%]	cell viability, 100 nM [%]	cell viability, 1000 nM [%]	cell viability, 10000 nM [%]
[11]	–	–	–	–	93.4	84.5	70.3	75.6	3.43
[12]	–	–	–	–	79.2	89.3	79.2	77.1	0.503
[13]	–	–	–	–	6.78	82.5	13.4	11.1	10.1
[14]	–	–	–	–	83.2	96.6	86.2	> 100	2.54
[15]	–	–	–	–	60.5	98.5	68.7	44.8	6.11
[16]	–	–	–	–	52	> 100	69.9	78.6	57
[17]	–	–	–	–	81.8	98.3	76	69	21.2
[18]	–	–	–	–	90.5	98.5	93.3	93.6	4.56
[19]	–	–	–	–	60	> 100	84.6	51.3	3.72
[20]	–	–	–	–	79.5	77.8	71.8	45.5	> 100
[21]	–	–	–	–	99.6	88.9	95.2	80.4	3.26
[22]	–	–	–	–	82.6	88.8	68.2	53.9	< 0
[23]	–	–	–	–	9.44	76.7	31.8	39	7.88
[24]	–	–	–	–	94.1	98.5	> 100	> 100	5.04
[25]	–	–	–	–	84	96.2	98.5	70.3	1.42
[26]	0.131	0.134	0.156	0.153	–	–	–	–	–

O=C(C1CC1)N1CC[C@@H](C=C2NNC(=O)N2c2ccc(-c3ccc4occc4c3)cc2)C1
Details	IC50 (cell viability) [µM]
[1]	> 10
[2]	0.0437
[3]	9.06
[4]	> 10
[5]	1.47
[6]	> 10
[7]	> 10
[8]	> 10
[9]	> 10
[10]	> 10

cell viability [%]
Details	1 nM	10 nM	100 nM	1000 nM	10000 nM
[11]	87	89	> 100	96.2	79.7
[12]	85.5	95.4	74	92.2	73.2
[13]	73	> 100	72.3	35.3	17.1
[14]	98.1	97.7	> 100	89.4	79.5
[15]	92.5	91.4	96.2	77.3	79.5
[16]	> 100	97.1	81.9	51.6	71.6
[17]	85.5	96.1	92.9	86.5	80.1
[18]	> 100	99	> 100	95.2	91.7
[19]	93.5	> 100	84.2	78.8	77.1
[20]	80.8	46.1	50.2	67	47.8
[21]	95.4	92.8	> 100	89	84.1
[22]	79.7	87.2	90.8	92.1	71.6
[23]	95.6	80.9	87.2	45.5	33.2
[24]	94.6	98	99.7	91.5	88
[25]	89.4	95.2	95.7	90.3	84
